According to PubChem BioAssay (NCI):
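96-well plates; 48 h exposure; 5 concentrations. Endpoints by linear interpolation between flanking doses. Not reached: highest tested concentration assigned. Here, GI50 denotes the concentration required for 50% inhibition of growth. Definition used: TGI = concentration required for complete inhibition of growth.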

Experiments:
Assay in all cases: NCI tumour cell line growth inhibition, 48 h
[1] = test system: HCT-116 colon
[2] = test system: K-562 leukemia
[3] = test system: M14 melanoma
[4] = test system: MALME-3M melanoma
[5] = test system: NCI-H226 lung
[6] = test system: OVCAR-4 ovarian
[7] = test system: SF-295 CNS
[8] = test system: SF-539 CNS
[9] = test system: SNB-75 CNS
[10] = test system: UO-31 renal

| SMILES | GI50 [1] [µM] | TGI [1] [µM] | GI50 [2] [µM] | TGI [2] [µM] | GI50 [3] [µM] | TGI [3] [µM] | GI50 [4] [µM] | TGI [4] [µM] | GI50 [5] [µM] | TGI [5] [µM] | GI50 [6] [µM] | TGI [6] [µM] | GI50 [7] [µM] | TGI [7] [µM] | GI50 [8] [µM] | TGI [8] [µM] | GI50 [9] [µM] | TGI [9] [µM] | GI50 [10] [µM] | TGI [10] [µM] |
| --- | --- | --- | --- | --- | --- | --- | --- | --- | --- | --- | --- | --- | --- | --- | --- | --- | --- | --- | --- | --- |
| O=C(Nc1ccccc1O)c1ccc(CNc2ccnc(C(F)(F)F)c2)cc1 | 3.96 | 34.9 | 2.39 | > 100 | 3.86 | 38 | 1.03 | 11.6 | 6.56 | 33.8 | 17.2 | > 100 | 3.16 | 17.1 | 1.89 | 23.1 | 7.26 | 48.4 | 2.15 | 14 |
| O=S(=O)(N/N=C/c1cccc(Cl)c1Cl)c1ccccc1 |  | > 100 |  | > 100 |  | > 100 |  | > 100 |  | > 100 |  | > 100 |  | > 100 |  | > 100 |  | > 100 |  | > 100 |
| CC1=C(C(=O)Nc2cc(=O)n(C)c(=O)n2C)C(c2ccc([N+](=O)[O-])cc2)C(C(=O)Nc2cc(=O)n(C)c(=O)n2C)=C(C)N1 |  | > 100 |  | > 100 |  | > 100 |  | > 100 |  | > 100 |  | > 100 |  | > 100 |  | > 100 |  | > 100 |  | > 100 |
| O=C(Cc1nc2ccccc2s1)C(=O)Nc1cccc(Cl)c1 |  | > 100 |  | > 100 |  | > 100 |  | > 100 |  | > 100 |  | > 100 |  | > 100 |  | > 100 |  | > 100 |  | > 100 |
| O=C(Cc1csc(-c2nc(CC(=O)NNc3ccccc3)cs2)n1)NNc1ccccc1 |  | > 100 |  | > 100 |  | > 100 |  | > 100 |  | > 100 |  | > 100 |  | > 100 |  | > 100 |  | > 100 |  | > 100 |
| COc1ccc(C[C@@H]2NC[C@@H](O)[C@@H]2OC(C)=O)cc1 | 2.92 |  | 1.1 | > 100 | 11.8 |  | 3.97 |  | 5.27 |  | 25.9 |  | 6.7 | 90 | 9.48 | > 100 |  | 0.0692 | 44.6 |  |
| CCCCCCCCCc1cc[n+](CC(=O)c2ccc([N+](=O)[O-])cc2)cc1 | 0.373 | 1.43 | 0.338 | 2.02 | 0.553 | 2.14 | 1.41 | 3.03 | 0.535 | 2.15 | 0.78 | 2.57 | 1.44 | 2.79 | 1.65 | 3.1 | 1.12 | 2.36 | 1.48 | 2.9 |
| O=c1cc(-c2ccccc2)oc2cc(O)cc(O)c12 |  | 50.9 |  | 63.1 |  | 82.9 |  | 51.8 |  | 58.1 |  | > 100 |  | 37.6 |  | 31.3 |  | 31.2 |  | 43.5 |
| COc1ccc(-c2nc(C(=O)c3ccccc3)n(CC(=O)c3ccccc3)c2-c2ccc(OC)cc2)cc1 | > 100 | > 100 | > 100 | > 100 | > 100 | > 100 | > 100 | > 100 | > 100 | > 100 | > 100 | > 100 | > 100 | > 100 | > 100 | > 100 | > 100 | > 100 | > 100 | > 100 |
| CN1CCN(c2ccc(Nc3nc(N)c(C(=O)c4ccc5c(c4)OCCO5)s3)cc2)CC1 | 2.27 | > 15.5 | 2.43 | 18.3 | 3.99 | > 18.1 | 2.72 | 8.34 | 2.71 | 11.8 | 4.02 | 10.5 | 3.65 | 10 | 4.25 | 8.33 | 2.28 | 6 | 2.6 | 8.02 |
| CS(=O)(=O)CCNCc1ccc(-c2ccc3ncnc(Nc4ccc(OCc5cccc(F)c5)c(C(F)(F)F)c4)c3c2)o1 | 3.94 | 8.16 | 5.07 | 20 | 4.36 | 8.67 | 2.74 | 4.11 | 3.44 | 6.75 | 3.65 | 10.8 | 4.4 | 9.43 | 4.59 | 12.3 | 3.52 | 7.77 | 3.36 | 8.42 |
| CN(C)CCNC(=O)c1cccc2c(Nc3ccc(S(N)(=O)=O)cc3)c3ccccc3nc12 |  | 1.74 |  | 9.61 |  | 5.72 |  | 3.88 |  | 3.05 |  | 5.77 |  | 8.02 |  | 3.23 |  | 4.48 |  | 7.44 |
| COc1cc(O)c2c(c1)C(=O)C=C(Cl)C2=O |  | > 100 |  | > 100 |  | > 100 |  | > 100 |  | > 100 |  | > 100 |  | > 100 |  | > 100 |  | > 100 |  | > 100 |
| CC1(C)OB(O)OC1(C)C |  | > 100 |  | > 100 |  | > 100 |  | > 100 |  | > 100 |  | > 100 |  | > 100 |  | > 100 |  | > 100 |  | > 100 |
| O=C(O)/C(Cl)=C(\Cl)C(=O)NC1C2CC3CC(C2)CC1C3 (stereo not drawn) |  | > 100 |  | > 100 |  | > 100 |  | > 100 |  | > 100 |  | > 100 |  | > 100 |  | > 100 |  | > 100 |  | > 100 |
| O=S(=O)(SCc1ccccc1)C(c1ccccc1)c1ccccc1 |  | > 100 |  | > 100 |  | 59.7 |  | > 100 |  | 54.5 |  | > 100 |  | > 100 |  | 43.1 |  | > 100 |  | > 100 |
| N#CSc1c[nH]c2ccc(/C=C/C(=O)/C=C(/C=C/c3ccc4[nH]cc(SC#N)c4c3)OB(F)F)cc12 | 0.0887 | 0.375 | 0.281 | > 100 | 0.374 | 1.68 | 0.261 | 0.845 | 2.18 | 5.62 | 0.344 | 3.11 | 3.47 | 14.4 | 1.86 | 6.17 | 2.38 | 11.1 | 0.212 | 0.808 |
